Reference: patent US9328083B2, “2-aminated methylene or 2-esterified methylene tanshinone derivatives, and preparation method and application thereof” (HANGZHOU BENSHENG PHARMACEUTICAL CO., LTD., priority 2011, dated 2016)
In brackets after ≈: the same amount, converted by molar mass.

Legend:
[1] = tested on: H9 (acute lymphoblastic leukemia, ALL); assay: MTT growth inhibition of leukemia cells, 72 h; assay type: cell-based, human; conditions: Homo sapiens, H9, 72 h; for IC50: read-out: IC50; for IC90: read-out: IC90
Outline: (§1)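 MTT assay of viable cells following 72 h compound treatment at 37 °C. Cultures contained 6000 cells per well in RPMI-1640 plus 10% fetal bovine serum.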

[2] = tested on: Jurkat (acute lymphoblastic leukemia, ALL); assay: MTT growth inhibition of leukemia cells, 72 h; assay type: cell-based, human; conditions: Homo sapiens, 72 h; for IC50: read-out: IC50; for IC90: read-out: IC90
Outline: as §1

[3] = tested on: K562/adr (drug-resistant, chronic myeloid leukemia, CML); assay: MTT growth inhibition of leukemia cells, 72 h; assay type: cell-based, human; conditions: Homo sapiens, K562/Adr; for IC50: read-out: IC50; for IC90: read-out: IC90
Outline: as §1

[4] = tested on: Kasumi-1 (acute myeloid leukemia M2 type, AML-M2); assay: MTT growth inhibition of leukemia cells, 72 h; assay type: cell-based, human; conditions: Homo sapiens, Kasumi-1, 72 h; for IC50: read-out: IC50; for IC90: read-out: IC90
Outline: as §1

[5] = tested on: NB4 (acute promyelocytic leukemia, AML); assay: MTT growth inhibition of leukemia cells, 72 h; assay type: cell-based, human; conditions: Homo sapiens, NB4, 72 h; for IC50: read-out: IC50; for IC90: read-out: IC90
Outline: as §1

[6] = tested on: RPMI8226 (multiple myeloma); assay: MTT growth inhibition of multiple myeloma cells, 72 h; assay type: cell-based, human; conditions: Homo sapiens, RPMI 8226, 72 h; for IC50: read-out: IC50; for IC90: read-out: IC90
Outline: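 RPMI8226 myeloma cells, 6000 per well in 1640 medium with 10% FBS, exposed to compounds at a range of concentrations (diluted from 10 mg/mL DMSO stock) for 72 h at 37° C, 5% CO2. Viable cells then determined by MTT.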

[7] = tested on: A549 (human lung cancer); assay: MTT growth inhibition of human solid tumor cells, 72 h; assay type: cell-based; conditions: Homo sapiens, A549, 72 h; for IC50: read-out: IC50; for IC90: read-out: IC90
Outline: (§2)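 4000 cells per well in DMEM high glucose with 10% FBS were grown for 24 h at 37°C, 5% CO2. Compounds were diluted from a 10 mg/mL DMSO stock, and cells were exposed for 72 h; viable cells measured by MTT.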

[8] = tested on: Becap37 (human breast cancer cell); assay: as above; assay type: cell-based; conditions: Homo sapiens, Becap-37, 72 h; for IC50: read-out: IC50; for IC90: read-out: IC90
Outline: as §2

[9] = tested on: CNE (nasopharyngeal carcinoma cell); assay: as above; assay type: cell-based; conditions: Homo sapiens; for IC50: read-out: IC50; for IC90: read-out: IC90
Outline: as §2

[10] = tested on: CaES-17 (esophageal cancer cell); assay: as above; assay type: cell-based; conditions: Homo sapiens, CaEs17, CaEs-17, 72 h; for IC50: read-out: IC50; for IC90: read-out: IC90
Outline: as §2

[11] = tested on: Hela (human cervical cancer cell); assay: as above; assay type: cell-based; conditions: Homo sapiens, HeLa, 72 h; for IC50: read-out: IC50; for IC90: read-out: IC90
Outline: as §2

[12] = tested on: Hep G2 (human liver cancer cell); assay: as above; assay type: cell-based; conditions: Homo sapiens, HepG2, Hep G2, 72 h; for IC50: read-out: IC50; for IC90: read-out: IC90
Outline: as §2

[13] = tested on: Hep-2 (laryngeal carcinoma); assay: as above; assay type: cell-based; conditions: Homo sapiens, HEp-2, 72 h; for IC50: read-out: IC50; for IC90: read-out: IC90
Outline: as §2

[14] = tested on: MG63 (osteosarcoma); assay: as above; assay type: cell-based; conditions: Homo sapiens, MG-63, 72 h; for IC50: read-out: IC50; for IC90: read-out: IC90
Outline: as §2

[15] = tested on: MGC 803 (human gastric cancer cell); assay: as above; assay type: cell-based; conditions: Homo sapiens, MGC-803, 72 h; for IC50: read-out: IC50; for IC90: read-out: IC90
Outline: as §2

[16] = tested on: PANC-1 (pancreatic cancer); assay: as above; assay type: cell-based; conditions: Homo sapiens, PANC-1, 72 h; for IC50: read-out: IC50; for IC90: read-out: IC90
Outline: as §2

[17] = tested on: PC-3 (prostate cancer); assay: as above; assay type: cell-based; conditions: Homo sapiens, PC-3, 72 h; for IC50: read-out: IC50; for IC90: read-out: IC90
Outline: as §2

[18] = tested on: RKO (human colon adenocarcinoma cell); assay: as above; assay type: cell-based; conditions: Homo sapiens; for IC50: read-out: IC50; for IC90: read-out: IC90
Outline: as §2

[19] = tested on: SK-OV-3 (ovarian cancer cell); assay: as above; assay type: cell-based; conditions: Homo sapiens, SK-OV-3, 72 h; for IC50: read-out: IC50; for IC90: read-out: IC90
Outline: as §2

[20] = tested on: U87 MG (malignant glioma cell); assay: as above; assay type: cell-based; conditions: Homo sapiens, U-87 MG, U87-MG, 72 h; for IC50: read-out: IC50; for IC90: read-out: IC90
Outline: as §2

SMILES | IC50 [1] [µg/mL] | IC90 [1] [µg/mL] | IC50 [2] [µg/mL] | IC90 [2] [µg/mL] | IC50 [3] [µg/mL] | IC90 [3] [µg/mL] | IC50 [4] [µg/mL] | IC90 [4] [µg/mL] | IC50 [5] [µg/mL] | IC90 [5] [µg/mL] | IC50 [6] [µg/mL] | IC90 [6] [µg/mL] | IC50 [7] [µg/mL] | IC90 [7] [µg/mL] | IC50 [8] [µg/mL] | IC90 [8] [µg/mL] | IC50 [9] [µg/mL] | IC90 [9] [µg/mL] | IC50 [10] [µg/mL] | IC90 [10] [µg/mL] | further results
CCN(C)Cc1oc2c(c1C)C(=O)C(=O)c1c-2ccc2c(C)cccc12 [BS-TA-B03] | 3.3 (≈ 9.5 µM) | 6.8 (≈ 19.6 µM) | 2.36 (≈ 6.79 µM) | 6.15 (≈ 17.7 µM) | 1.22 (≈ 3.51 µM) | 2.69 (≈ 7.74 µM) | 0.81 (≈ 2.33 µM) | 2 (≈ 5.76 µM) | 0.92 (≈ 2.65 µM) | 3.01 (≈ 8.66 µM) | 2.83 (≈ 8.15 µM) | 5.87 (≈ 16.9 µM) | 0.8 (≈ 2.3 µM) | 4.43 (≈ 12.8 µM) | 4 (≈ 11.5 µM) | 9.37 (≈ 27 µM) | 8.8 (≈ 25.3 µM) | 43.6 (≈ 125 µM) | 5.55 (≈ 16 µM) | 10.3 (≈ 29.8 µM) | IC50 [11]: 3.99 µg/mL (≈ 11.5 µM); IC90 [11]: 11 µg/mL (≈ 31.5 µM); IC50 [12]: 4.69 µg/mL (≈ 13.5 µM); IC90 [12]: 22.1 µg/mL (≈ 63.6 µM); IC50 [13]: 6.11 µg/mL (≈ 17.6 µM); IC90 [13]: 18.5 µg/mL (≈ 53.1 µM); IC50 [14]: 4.53 µg/mL (≈ 13 µM); IC90 [14]: 13 µg/mL (≈ 37.4 µM); IC50 [15]: 3.86 µg/mL (≈ 11.1 µM); IC90 [15]: 7.99 µg/mL (≈ 23 µM); IC50 [16]: 3.14 µg/mL (≈ 9.04 µM); IC90 [16]: 16 µg/mL (≈ 46.1 µM); IC50 [17]: 5.39 µg/mL (≈ 15.5 µM); IC90 [17]: 12.3 µg/mL (≈ 35.5 µM); IC50 [18]: 0.49 µg/mL (≈ 1.41 µM); IC90 [18]: 14.6 µg/mL (≈ 41.9 µM); IC50 [19]: 12.8 µg/mL (≈ 36.9 µM); IC90 [19]: 21.7 µg/mL (≈ 62.4 µM); IC50 [20]: 2.36 µg/mL (≈ 6.79 µM); IC90 [20]: 3.85 µg/mL (≈ 11.1 µM)
Cc1c(CNCC2CCCCC2)oc2c1C(=O)C(=O)c1c-2ccc2c(C)cccc12 [BS-TA-B06] | 3.2 (≈ 7.97 µM) | 14.1 (≈ 35.1 µM) | 5.25 (≈ 13.1 µM) | 16 (≈ 39.8 µM) | 0.81 (≈ 2.02 µM) | 1.8 (≈ 4.48 µM) | 0.57 (≈ 1.42 µM) | 1.73 (≈ 4.31 µM) | 2.13 (≈ 5.31 µM) | 7.29 (≈ 18.2 µM) | 6.16 (≈ 15.3 µM) | 16 (≈ 39.8 µM) | 1.59 (≈ 3.96 µM) | 10 (≈ 24.9 µM) | 5.9 (≈ 14.7 µM) | > 16 | 11.8 (≈ 29.4 µM) | > 16 | ≥ 19.3 | > 16 | IC50 [11]: 7.49 µg/mL (≈ 18.7 µM); IC90 [11]: > 16 µg/mL; IC50 [12]: 13.5 µg/mL (≈ 33.6 µM); IC90 [12]: > 16 µg/mL; IC50 [13]: 9.23 µg/mL (≈ 23 µM); IC90 [13]: > 16 µg/mL; IC50 [14]: 4.76 µg/mL (≈ 11.9 µM); IC90 [14]: > 16 µg/mL; IC50 [15]: 7.82 µg/mL (≈ 19.5 µM); IC90 [15]: > 16 µg/mL; IC50 [16]: 1.57 µg/mL (≈ 3.91 µM); IC90 [16]: 16.7 µg/mL (≈ 41.6 µM); IC50 [17]: 10.3 µg/mL (≈ 25.8 µM); IC90 [17]: 24.5 µg/mL (≈ 60.9 µM); IC50 [18]: 3.42 µg/mL (≈ 8.52 µM); IC90 [18]: > 16 µg/mL; IC50 [19]: > 16 µg/mL; IC90 [19]: > 16 µg/mL; IC50 [20]: 6.5 µg/mL (≈ 16.2 µM); IC90 [20]: > 16 µg/mL
